Assay results from patent publication US6989351B2, “Metabolic inhibitors against brassinosteroids” (Riken, priority 2000, dated 2006).

Columns and labels:
[1] = test system: brassinosteroid biosynthesis; experiment: action on plants when used at a high concentration
Text: Methods of application and doses of the metabolism inhibitor of the present invention can be suitably chosen by those skilled in the art depending on conditions including a purpose of application, a dosage form, a plot to be treated and the like. […] Such a phenomenon is recognized in difenoconazole, Brz217, Brz218, Brz224, Brz225 and the like, which are typical examples of the metabolism inhibitor of the present invention. Therefore, the metabolism inhibitor of the present invention is preferably applied to plants at a relatively low concentration. However, concentrations to achieve optimum action can be appropriately determined by those skilled in the art by referring to the following examples.

[2] = test system: metabolism of brassinolide; experiment: brassinolide metabolism in cell free system (degradation associated with oxidation of the 26th position of brassinolide); format: biochemical; details: cell free system from immature seeds of Pisum sativum
Protocol: To examine whether the accelerating activity on elongation of the cress hypocotyl was on the basis of the inhibitory activity against the metabolism of brassinolide, which is considered to be a practically active brassinosteroid, activity of the compounds was examined in degradation system associated with oxidation of the 26th position of brassinolide. Immature seeds of Pisum sativum were used as plant materials. Brassinolide was added to a cell free system, and metabolic activity was determined by quantifying the compound at the right end in the following scheme to examine inhibitory action of difenoconazole against metabolism. [drawing 6]

SMILES	action at a high concentration, opposite to the action of the metabolism inhibitor [1]	Ratio of metabolism inhibition degree (%) relative to control ([2]; 0.01 μM)	Ratio of metabolism inhibition degree (%) relative to control ([2]; 0.1 μM)	Ratio of metabolism inhibition degree (%) relative to control ([2]; 1.0 μM)	Ratio of metabolism inhibition degree (%) relative to control ([2]; 10 μM)
CCCC1COC(Cn2cncn2)(c2ccccc2Cl)O1 (stereo not drawn) [Brz217]	inhibit brassinosteroid biosynthesis when used at a high concentration	–	–	–	–
CCCC1COC(Cn2cncn2)(c2cccc(Cl)c2)O1 (stereo not drawn) [Brz218]	inhibit brassinosteroid biosynthesis when used at a high concentration	–	–	–	–
CCCC1COC(Cn2cncn2)(c2ccc(OC)cc2)O1 (stereo not drawn) [Brz224]	inhibit brassinosteroid biosynthesis when used at a high concentration	–	–	–	–
COCC1COC(Cn2cncn2)(c2ccc(Cl)cc2)O1 (stereo not drawn) [Brz225]	inhibit brassinosteroid biosynthesis when used at a high concentration	–	–	–	–
CC1COC(Cn2cncn2)(c2ccc(Oc3ccc(Cl)cc3)cc2Cl)O1 (stereo not drawn) [Difenoconazole, difenoconazole]	inhibit brassinosteroid biosynthesis when used at a high concentration	0%	7%	72%	76%
